Assay results taken from ChEMBL document CHEMBL1177696, “Heat shock protein 70 (hsp70) as an emerging drug target” (J Med Chem, 2010).
Converted amounts (≈) assume the structure as drawn.

Tests used:
Escherichia coli [1] = experiment: Antibacterial activity against Escherichia coli MC4100; assay type: functional
[2] = Inhibition of APIase activity of Escherichia coli MC4100 DNAK
[3] = Antiproliferative activity against human bladder cancer cells; assay type: functional, cell-based; conditions: Cancer cell lines
[4] = Antiproliferative activity against human colon cancer cells; assay type: functional, cell-based; conditions: Cancer cell lines
[5] = Antiproliferative activity against human breast cancer cells; assay type: functional, cell-based; conditions: Cancer cell lines
Escherichia coli [6] = experiment: Ratio of ciprofloxacin MIC to compound MIC for Escherichia coli; assay type: functional
[7] = test system: Yersinia pseudotuberculosis; experiment: Antibacterial activity against Yersinia pseudotuberculosis; assay type: functional
Escherichia coli [8] = experiment: Antibacterial activity against Escherichia coli; assay type: functional
[9] = Binding affinity to Escherichia coli DNAK substrate binding domain by isothermal titration assay
[10] = Cytotoxicity against human erythrocytes assessed as hemolysis after 30 mins by spectrometric analysis; assay type: cell-based; conditions: Erythrocyte, 0.5 h
[11] = Inhibition of Escherichia coli DNAK by luciferase-refolding assay
[12] = Terminal half life in renal transplant patient; assay type: ADME, organism-based; conditions: human, in vivo; read-out: beta t1/2 (converted)
L1210 = experiment: Antitumor activity against mouse L1210 cells xenografted in CDF1 mouse assessed as log reduction in tumor burden; assay type: functional
Saccharomyces cerevisiae = experiment: Induction of ATPase activity of yeast cytosolic HSC70
[13] = Alpha half life in renal transplant patient; assay type: ADME, organism-based; conditions: human, in vivo; read-out: alphat1/2
[14] = molecular target: Heat shock cognate 71 kDa protein (Homo sapiens) (UniProt P11142); experiment: Binding affinity to HSC70 EEVD domain by mass spectroscopy
Chain of Heat shock cognate 71 kDa protein (Homo sapiens) (P11142 2-646 limits assumed): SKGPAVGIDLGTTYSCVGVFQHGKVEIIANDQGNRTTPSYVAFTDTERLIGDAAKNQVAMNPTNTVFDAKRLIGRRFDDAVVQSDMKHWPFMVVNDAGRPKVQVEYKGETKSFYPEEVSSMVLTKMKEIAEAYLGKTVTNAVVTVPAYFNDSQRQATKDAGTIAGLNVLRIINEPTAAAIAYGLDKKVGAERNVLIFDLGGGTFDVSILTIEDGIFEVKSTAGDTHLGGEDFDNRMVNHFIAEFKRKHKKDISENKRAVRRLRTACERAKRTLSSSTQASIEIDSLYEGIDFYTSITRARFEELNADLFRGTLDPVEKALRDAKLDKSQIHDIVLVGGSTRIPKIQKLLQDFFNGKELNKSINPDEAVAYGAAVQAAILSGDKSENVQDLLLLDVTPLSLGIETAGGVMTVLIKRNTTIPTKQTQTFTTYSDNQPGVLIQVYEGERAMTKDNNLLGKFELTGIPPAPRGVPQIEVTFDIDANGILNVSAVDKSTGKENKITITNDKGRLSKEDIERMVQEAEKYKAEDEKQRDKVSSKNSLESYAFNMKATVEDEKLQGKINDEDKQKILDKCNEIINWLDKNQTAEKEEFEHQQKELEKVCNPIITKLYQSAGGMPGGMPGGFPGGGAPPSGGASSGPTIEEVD

[15] = Binding affinity to HSP90 EEVD domain by mass spectroscopy
Escherichia coli [16] = experiment: Inhibition of Escherichia coli DNAK at 150 uM

CCCCCCCCCCCCCCCCC(=O)NCc1ccc(C(=O)N[C@H](C(=O)O)[C@@H](C)CC)cc1
MIC (Escherichia coli [1]): 180 µg/mL (≈ 348 µM) | IC50 [2]: 1.2 µM

CCn1c(=O)/c(=C2\Sc3ccccc3N2C)s/c1=C\c1cccc[n+]1CC
IC50 [3]: 1 µM | IC50 [4]: 1 µM | IC50 [5]: 1 µM

H-GRPDKPRPYLPRPRPPRPVRI-OH
Ratio (Escherichia coli [6]): 4

O=C(NCc1ccccc1F)c1cccs1
MIC [7]: 10 µM (≈ 2.35 µg/mL) | MIC (Escherichia coli [8]): 10 µM (≈ 2.35 µg/mL) | Kd [9]: 70 µM

O=C(Nc1ccc2[nH]ccc2c1)c1cccs1
MIC [7]: 10 µM (≈ 2.42 µg/mL) | MIC (Escherichia coli [8]): 10 µM (≈ 2.42 µg/mL) | Kd [9]: 12.7 µM

CCCC/C=C\CCCCCCCCC(=O)NCc1ccc(C(=O)N[C@H](C(=O)O)[C@@H](C)CC)cc1
MIC (Escherichia coli [1]): 280 µg/mL (≈ 575 µM) | IC50 [2]: 36 µM | EC50 [10]: > 1500 µg/mL

COC(=O)C1=C(CCc2ccccc2)NC(=O)NC1c1ccc([N+](=O)[O-])cc1 (configuration not stated)
EC50 [11]: 4 µM

CCCCCCCCCCCCCCC(=O)NCc1ccc(C(=O)N[C@H](C(=O)O)[C@@H](C)CC)cc1
MIC (Escherichia coli [1]): 380 µg/mL (≈ 778 µM) | IC50 [2]: 5 µM

N=C(N)NCCCCCCC(=O)N[C@@H](O)C(=O)NCCCCNCCCN
half-life [12]: 2 h | FC (L1210): 4 | Activity (Saccharomyces cerevisiae): 20% | half-life [13]: 5 min | Activity [14]: 5 µM | Activity [15]: 5 µM

Cc1ccc(NC(=O)c2ccc([N+](=O)[O-])o2)cc1
MIC [7]: < 12 µM | MIC (Escherichia coli [8]): 10 µM (≈ 2.46 µg/mL)

CC1=C(C(=O)OCc2ccccc2)C(c2ccc(C3CCCCC3)cc2)NC(=O)N1CCCCCC(=O)O (configuration not stated)
inhibition (Escherichia coli [16]): 80%
